Measurements published in patent US8114864B2, “Macrolide antibiotics and their use for medical purposes” (Helmholtz-Zentrum Fuer Infektionsforschung, priority 2006, dated 2012).
Converted amounts (≈) assume the structure as drawn. Like-named read-outs stand apart in the source and are kept apart here.

Experiments:
[1] = tested on: Mycobacterium tuberculosis test strain H375RV; assay: Growth inhibition of Mycobacterium tuberculosis in liquid culture; type: cell-based; settings: for antibiotic activity against Mycobacterium tuberculosis: clinical isolates and reference strains
Protocol: Using the standard Mycobacterium tuberculosis test strain H375RV, it could be shown that thuggacin A inhibited growth at or below 8 μg/mL in liquid culture.
For tests of the biological activity, preferably aqueous compositions of the thuggacins according to the present invention were used separately in an aqueous composition comprising 10 mM acetic acid for stabilisation.

[2] = tested on: mouse fibroblast cells (L929); assay: Sensitivity of cultivated mouse fibroblast cells
Micrococcus luteus [3] = assay: Agar diffusion test; type: cell-based; settings: read-out: Diameter of inhibition zone
Protocol: (§1) In an agar diffusion test using 10 μg of the compound per disc, the following inhibition was found: […]

Mycobacterium phlei = assay: Agar diffusion test; type: cell-based; settings: Mycolicibacterium phlei, read-out: Diameter of inhibition zone
Protocol: as §1

Corynebacterium fascians = assay: Agar diffusion test; type: cell-based; settings: Rhodococcoides fascians, read-out: Diameter of inhibition zone
Protocol: as §1

[4] = tested on: NADH oxidation of crude cytoplasmic membrane fractions; assay: Inhibition of NADH oxidation of crude cytoplasmic membrane fractions; type: biochemical; settings: initial studies using Micrococcus luteus
[5] = tested on: Micrococcus luteus, Mycobacterium phlei and M. chitae; assay: MIC in liquid culture
[6] = Stability / rearrangement of thuggacins in protic solvent; type: physicochemical; settings: for stability in aqueous solution: optionally comprising a C1-C2 alcohol
Protocol: Starting from 8 mg/mL thuggacin A, an equilibrium of thuggacin A, thuggacin-B and thuggacin C could be found after approximately 96 hours. In general, the reaction time for reaching the equilibrium can vary over a broad range, e.g. from 1 to 20 days. Re-crystallized thuggacin of high purity is nearly stable, i.e. undergo rearrangement only very slowly. Thuggacin A having a lower purity will undergo rearrangement to thuggacin B and C with increased reaction rates. Similar stabilities have been observed for the rearrangement reaction of thuggacin cmc-A to thuggacin cmc-B and cmc-C.

Micrococcus luteus [7] = assay: Inhibition of oxygen demand/consumption of Micrococcus luteus in liquid culture; type: cell-based; settings: initial studies

## C/C=C(C)/C=C(\C)C(O)C(C)C(O)C(O)C1C/C=C(C)\C=C\C(O)CC(O)C(C)c2nc(cs2)/C=C(\CCCCCC)C(=O)O1 (centres unmarked) [13-methyl thuggacin A]
[1]
  antibiotic activity against Mycobacterium tuberculosis: antibiotic activity

## C/C=C(C)/C=C(\C)C(O)C(C)C(O)C(O)C1C/C=C\C=C\C(O)CC(O)C(C)c2nc(cs2)/C=C(\CCCCCC)C(=O)O1 (centres unmarked) [thuggacin A]
[2]
  IC50: 4 µg/mL (≈ 6.33 µM)
Micrococcus luteus [3]; 10 μg of compound per disc
  zone of inhibition at 10 µg/disc: 29 mm
Mycobacterium phlei; 10 μg of compound per disc, Mycobacterium phlei
  zone of inhibition at 10 µg/disc: 20 mm
Corynebacterium fascians; 10 μg of compound per disc, Corynebacterium fascians, figures in parentheses indicate an incomplete inhibition
  zone of inhibition at 10 µg/disc: 30 mm
[4]
  oxidation of NADH and of reduced cytochrome c: reduced
[5]
  relative effectiveness in liquid culture MIC experiments: most effective
[6]
  stability in aqueous solution: not stable
[6]; starting from 8 mg/mL thuggacin A, aqueous composition optionally including methanol (FIG. 1: methanol)
  time to equilibrium of thuggacin A, thuggacin B and thuggacin C: approximately 96 hours
[1]
  antibiotic activity against Mycobacterium tuberculosis: antibiotic activity
[1]; liquid culture, strain H375RV
  concentration inhibiting growth: ≤ 8 µg/mL
Micrococcus luteus [7]
  inhibition of oxygen consumption: almost completely

## C/C=C(C)/C=C(\C)C(O)C(C)C(O)C1OC(=O)/C(CCCCCC)=C/c2csc(n2)C(C)C(O)CC(O)/C=C/C=C\CC1O (centres unmarked) [thuggacin B]
[2]
  IC50: 8 µg/mL (≈ 12.7 µM)
[5]
  relative effectiveness in liquid culture MIC experiments: most effective
[6]
  stability in aqueous solution: not stable
[1]
  antibiotic activity against Mycobacterium tuberculosis: antibiotic activity

## C/C=C(C)/C=C(\C)C(O)C(C)C1OC(=O)/C(CCCCCC)=C/c2csc(n2)C(C)C(O)CC(O)/C=C/C=C\CC(O)C1O (centres unmarked) [thuggacin C]
[5]
  relative effectiveness in liquid culture MIC experiments: less effective against certain bacteria
[1]
  antibiotic activity against Mycobacterium tuberculosis: antibiotic activity

## C/C=C(C)/C=C(\C)CC(C)C(O)C(O)C1C/C=C\C=C\C(O)CC(O)C(CO)c2nc(cs2)/C=C(\C)C(=O)O1 (centres unmarked) [thuggacin cmc-A]
Micrococcus luteus [3]
  zone of inhibition at 10 µg/disc: 46 mm
Mycobacterium phlei
  zone of inhibition at 10 µg/disc: 24 mm
Corynebacterium fascians
  zone of inhibition at 10 µg/disc: 47 mm
[5]
  relative effectiveness in liquid culture MIC experiments: most effective

## C/C=C(C)/C=C(\C)CC(C)C(O)C1OC(=O)/C(C)=C/c2csc(n2)C(CO)C(O)CC(O)/C=C/C=C\CC1O (centres unmarked) [thuggacin cmc-B]
[5]
  relative effectiveness in liquid culture MIC experiments: most effective

## C/C=C(C)/C=C(\C)CC(C)C1OC(=O)/C(C)=C/c2csc(n2)C(CO)C(O)CC(O)/C=C/C=C\CC(O)C1O (centres unmarked) [thuggacin cmc-C]
Micrococcus luteus [3]
  zone of inhibition at 10 µg/disc: 44 mm
Mycobacterium phlei
  zone of inhibition at 10 µg/disc: 22 mm
Corynebacterium fascians
  zone of inhibition at 10 µg/disc: 44 mm
